Source: patent US10179761B2, “Compounds, pharmaceutical composition and their use in treating neurodegenerative diseases” (UNIVERSITE DE LILLE 2 DROIT ET SANTE, priority 2014, dated 2019)

Tests used:
[1] = target: σ2 receptors (Homo sapiens (Human), UniProt Q5BJF2); experiment: σ2 binding assay, Jurkat cell membranes, [3H]-DTG in presence of (+)-pentazocine; settings: hydrochloride salts; mean of 2 or 3 independent experiments; Ki from IC50 (Cheng-Prusoff); read-out: Sigma 2 Ki
Experimental: The σ binding assays were performed according to Ganapathy et al. (Ganapathy, M. E.; Prasad, P. D.; Huang, W.; Seth, P.; Leibach, F. H.; Ganapathy, V. Molecular and ligand-binding characterization of the sigma-receptor in the Jurkat human T lymphocyte cell line. J. Pharmacol. Exp. Ther. 1999, 289, 251-260). […] The σ2 binding assay was performed by incubating Jurkat cell membranes ([…] protein per tube) with [^3H]-DTG (25 nM) in presence of (+)-pentazocine (1 μM) to saturate σ1 receptors, and a range of concentrations of tested compounds, at room temperature for 1 hour in 5 mM Tris/HCl buffer (pH=7.4). The final assay volume was 0.5 mL. Binding was terminated by rapid filtration through Wathman GF/B filters, which were then washed with 5×1 mL ice-cold NaCl solution and allowed to dry before bound radioactivity was measured using liquid scintillation counting. Nonspecific binding was determined, in both assays, under similar conditions, but in presence of 10 μM unlabeled haloperidol. Inhibition constants (Ki) were calculated from the IC50 values according to the method of Cheng and Prusoff (Cheng, Y.; Prusoff, W. H. Relationship between the inhibition constant (Ki) and the concentration of inhibitor which causes 50 percent inhibition (IC50) of an enzymatic reaction. Biochem Pharmacol. 1973, 22 (23), 3099-108): […]

[2] = test system: Male Swiss mice; experiment: Dizocilpine-induced learning deficits: step-through passive avoidance test; type: in vivo
Experimental: The activity of compound 3.1.10 was evaluated on the prevention of the dizocilpine-induced learning deficits measured using two behavioral tests. The present experiment tested if its anti-amnesic activity could be blocked by pretreatment with the reference sigma-1 receptor antagonist NE-100.
• Sixty (60) mice were used. Behavioral testing started one week after the arrival of the animals in the AMYLGEN animal facility. • 5 treatment groups were designed and used as follows:
• Vehicle 1 was physiological saline for dizocilpine, DMSO 2% in water for compound 3.1.10 • Animals were used at day 1 in the Y-maze test and at days 2 and 3 in the passive avoidance test, with training at day 2 and retention at day 3. • Test compounds, compound 3.1.10 and/or NE-100 were administered 10 min before dizocilpine (at 0.15 mg/kg i.p.) or vehicle. • Dizocilpine or vehicle 1 was administered 20 min before the Y-maze test session on day 1. • Dizocilpine or vehicle 1 was administered 20 min before the passive avoidance training session on day 2. Drugs were not injected before the retention session on day 3. • The whole experiment program was performed in a single serie experiment. • Treatments were randomized. 2.1.2. Animals
Male Swiss mice, 6 weeks old and weighing 30-35 g, from JANVIER (Saint Berthevin, France), were housed in groups with access to food and water ad libitum, except during experiments. […]
The apparatus is a two-compartments (15×20×15 cm high) box with one illuminated with white polyvinylchloride walls and the other darkened with black polyvinylchloride walls and a grid floor. […] The step-through latency (the latency spent to enter the dark compartment) and the number of vocalizations was recorded. […] The step-through latency was recorded up to 300 s. When the mouse entered the dark compartment or 300 s has elapsed (they were therefore manually placed in it), the escape latency (latency to exit from the dark compartment) was recorded up to 300 s.
They were therefore analyzed using a Kruskal-Wallis non-parametric ANOVA (H value), followed by a Dunn's multiple comparison test.

Sequence of σ2 receptors (Q5BJF2 whole entry): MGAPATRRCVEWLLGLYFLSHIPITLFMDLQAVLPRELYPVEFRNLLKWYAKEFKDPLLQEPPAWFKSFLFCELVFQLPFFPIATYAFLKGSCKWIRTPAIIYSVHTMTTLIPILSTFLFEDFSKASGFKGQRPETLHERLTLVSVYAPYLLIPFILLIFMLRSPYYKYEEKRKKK

SMILES: CN(CCCNC(=O)c1ccc(Cl)cc1)Cc1ccccc1 [Compound 3.1.10, N-[3-(benzylmethylamino)propyl]-4-chlorobenzamide]
- Ki [1]: 190 nM
- dizocilpine-induced learning deficits, passive avoidance test ([2]; 0.5 mg/kg i.p., 10 min before dizocilpine 0.15 mg/kg i.p.): significantly attenuated
- beneficial effect of compound 3.1.10 with NE-100, passive avoidance test ([2]; 3.1.10 0.5 mg/kg + NE-100 3 mg/kg + dizocilpine 0.15 mg/kg i.p.): prevented by treatment with the sigma-1 antagonist NE-100
